Measured values from ChEMBL document CHEMBL3044998, “Improgan-like Analgesics: A Family of Compounds Derived From Histamine Anatgonists” (Med Chem Res, 2004).
pKd: −log10 of the molar value. The source made the active and inactive calls. The rule behind the calls is not given here.

Tests used:
Rattus norvegicus [1] = test: Antinociceptive activity in icv dosed Rattus norvegicus albino (rat) tus norvegicus Sprague-Dawley (rat) assessed as increase in thermal-stimulus induced tail flick latency after 5 to 10 min; format: functional; conditions: for Emax: Rattus norvegicus, Sprague-Dawley albino, Tail, central
Rattus norvegicus [2] = test: Antinociceptive activity in icv dosed Rattus norvegicus albino (rat) tus norvegicus Sprague-Dawley (rat) assessed as maximal increase in paw withdrawal latency after 5 to 10 min by hot plate test; format: functional; conditions: for Emax: Rattus norvegicus, Sprague-Dawley albino, central
Rattus norvegicus [3] = test: Neurotoxicity in icv dosed Rattus norvegicus albino (rat) tus norvegicus Sprague-Dawley (rat) assessed as motor impairment; format: toxicity, organism-based; conditions: in vivo, icv_or_intrathecal
Rattus norvegicus [4] = test: Toxicity in icv dosed Rattus norvegicus albino (rat) tus norvegicus Sprague-Dawley (rat) assessed as behavioral changes; format: organism-based; conditions: in vivo, icv_or_intrathecal
Rattus norvegicus [5] = test: Antinociceptive activity in icv dosed Rattus norvegicus albino (rat) tus norvegicus Sprague-Dawley (rat) assessed as increase in thermal-stimulus induced tail flick latency; format: functional, organism-based; conditions: TDE = time-dependent effect
Rattus norvegicus [6] = test: Antinociceptive activity in icv dosed Rattus norvegicus albino (rat) tus norvegicus Sprague-Dawley (rat) assessed as maximal increase in paw withdrawal latency by hot plate test; format: functional, organism-based; conditions: TDE = time-dependent effect
Histamine H2 receptor = Histamine H2 receptor (Homo sapiens, UniProt P25021); test: Binding affinity to histamine H2 receptor (unknown origin)
Chain of Histamine H2 receptor (P25021 whole entry): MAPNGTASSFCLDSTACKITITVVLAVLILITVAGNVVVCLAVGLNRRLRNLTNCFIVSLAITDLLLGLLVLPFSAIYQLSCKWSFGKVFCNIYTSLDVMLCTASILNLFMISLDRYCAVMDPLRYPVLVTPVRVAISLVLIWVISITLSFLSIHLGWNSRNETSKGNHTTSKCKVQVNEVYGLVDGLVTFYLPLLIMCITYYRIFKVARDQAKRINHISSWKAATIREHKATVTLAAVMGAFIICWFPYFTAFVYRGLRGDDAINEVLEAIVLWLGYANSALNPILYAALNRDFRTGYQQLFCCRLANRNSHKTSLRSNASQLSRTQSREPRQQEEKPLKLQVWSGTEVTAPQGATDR

Histamine H3 receptor [7] = target: Histamine H3 receptor (Homo sapiens, UniProt Q9Y5N1); test: Binding affinity to histamine H3 receptor (unknown origin)
Chain of Histamine H3 receptor (Homo sapiens, UniProt Q9Y5N1) (Q9Y5N1 whole entry): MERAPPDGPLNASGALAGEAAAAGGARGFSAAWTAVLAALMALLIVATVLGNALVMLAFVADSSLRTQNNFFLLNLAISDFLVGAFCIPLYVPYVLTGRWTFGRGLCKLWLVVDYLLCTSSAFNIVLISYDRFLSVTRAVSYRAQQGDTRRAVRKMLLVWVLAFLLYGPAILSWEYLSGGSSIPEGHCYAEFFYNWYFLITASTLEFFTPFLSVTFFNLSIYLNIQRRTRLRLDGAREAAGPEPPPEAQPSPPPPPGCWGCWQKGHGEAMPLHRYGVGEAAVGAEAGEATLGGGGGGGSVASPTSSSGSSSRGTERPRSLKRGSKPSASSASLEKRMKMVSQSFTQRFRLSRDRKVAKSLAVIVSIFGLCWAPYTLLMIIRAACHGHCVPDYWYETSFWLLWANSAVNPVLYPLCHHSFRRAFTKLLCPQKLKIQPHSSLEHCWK

Histamine H3 receptor [8] = target: Histamine H3 receptor (Cavia porcellus, UniProt Q9JI35); test: Binding affinity to histamine H3 receptor in Cavia porcellus (guinea pig) ileum; format: tissue-based
Chain of Histamine H3 receptor (Cavia porcellus, UniProt Q9JI35) (Q9JI35 whole entry): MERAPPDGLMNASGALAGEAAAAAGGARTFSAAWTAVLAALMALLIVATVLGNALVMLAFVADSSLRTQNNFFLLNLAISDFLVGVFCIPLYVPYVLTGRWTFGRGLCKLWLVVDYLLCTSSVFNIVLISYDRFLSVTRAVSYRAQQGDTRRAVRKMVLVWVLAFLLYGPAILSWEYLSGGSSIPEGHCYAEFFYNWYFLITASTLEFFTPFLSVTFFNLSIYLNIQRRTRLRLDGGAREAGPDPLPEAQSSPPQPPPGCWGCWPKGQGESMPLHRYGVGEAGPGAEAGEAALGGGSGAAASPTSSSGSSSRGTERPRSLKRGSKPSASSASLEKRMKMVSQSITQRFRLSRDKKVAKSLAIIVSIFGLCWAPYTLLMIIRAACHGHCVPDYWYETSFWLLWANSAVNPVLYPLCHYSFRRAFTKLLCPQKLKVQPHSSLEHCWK

Rattus norvegicus [9] = test: Antinociceptive activity in Rattus norvegicus albino (rat) tus norvegicus Sprague-Dawley (rat) assessed as maximal increase in paw withdrawal latency at 20 to 60 ug, icv after 30 to 60 min by hot plate test; format: functional, organism-based
Rattus norvegicus [10] = test: Antinociceptive activity in Rattus norvegicus albino (rat) tus norvegicus Sprague-Dawley (rat) assessed as maximal increase in paw withdrawal latency at 20 to 60 ug, icv by hot plate test; format: functional, organism-based; conditions: TDE = time-dependent effect
Rattus norvegicus [11] = test: Toxicity in Rattus norvegicus albino (rat) tus norvegicus Sprague-Dawley (rat) assessed as behavioral changes at 20 to 60 ug, icv; format: organism-based; conditions: in vivo, icv_or_intrathecal
Rattus norvegicus [12] = test: Antinociceptive activity in Rattus norvegicus albino (rat) tus norvegicus Sprague-Dawley (rat) assessed as increase in thermal-stimulus induced tail flick latency at 20 to 60 ug, icv after 30 to 60 min; format: functional, organism-based
Rattus norvegicus [13] = test: Antinociceptive activity in Rattus norvegicus albino (rat) tus norvegicus Sprague-Dawley (rat) assessed as increase in thermal-stimulus induced tail flick latency at 20 to 60 ug, icv; format: functional, organism-based; conditions: TDE = time-dependent effect
Rattus norvegicus [14] = test: Neurotoxicity in Rattus norvegicus albino (rat) tus norvegicus Sprague-Dawley (rat) assessed as motor impairment at 20 to 60 ug, icv; format: toxicity, organism-based; conditions: in vivo, icv_or_intrathecal

| Structure (SMILES) | ED50 (Rattus norvegicus [1]) [nmol] | ED50 (Rattus norvegicus [2]) [nmol] | other results |
| --- | --- | --- | --- |
| S=C(NCCCCc1c[nH]cn1)Nc1ccccc1 | 81 | 81 | – |
| S=C(NCCCCCCc1c[nH]cn1)Nc1ccccc1 | – | – | Emax (Rattus norvegicus [1]): < 100%; Emax (Rattus norvegicus [2]): < 100% |
| C/N=C(\S)NCCc1c[nH]cn1 | 85 | 85 | – |
| CN/C(=N\C#N)NCCSCc1ccccc1 | >403 | >403 | – |
| CN/C(=C/[N+](=O)[O-])NCCCn1ccnc1 | – | – | Activity (Rattus norvegicus [3]): Non-toxic; Activity (Rattus norvegicus [4]): Non-toxic |
| CNC(=S)NCCSCc1[nH]cnc1C [METIAMIDE] | 370 | 370 | – |
| S=C(Nc1ccccc1)N1CCC(c2c[nH]cn2)CC1 | – | – | Emax (Rattus norvegicus [1]): < 100%; Emax (Rattus norvegicus [2]): < 100% |
| CN/C(=N\CCSCc1nc[nH]c1C)NC#N [CIMETIDINE] | 464 | 464 | Activity (Rattus norvegicus [1]): Dose-dependent effect; Activity (Rattus norvegicus [2]): Dose-dependent effect; Activity (Rattus norvegicus [5]): tde; Activity (Rattus norvegicus [6]): tde |
| c1cc(CN2CCCCC2)cc(OCCCNc2nc3ccccc3s2)c1 [ZOLANTIDINE] | >262 | >262 | – |
| NC(=NCc1ccc(Cl)cc1)SCCCc1cnc[nH]1 [CLOBENPROPIT] | – | – | Activity (Rattus norvegicus [3]): Non-toxic; Activity (Rattus norvegicus [4]): Non-toxic |
| CN/C(=N/CCSCc1nc[nH]c1C)NC#N [CIMETIDINE] | – | – | Activity (Rattus norvegicus [3]): Non-toxic; Activity (Rattus norvegicus [4]): Non-toxic |
| C/N=C(/NC#N)NCCSCc1csc(NC(=N)N)n1 [TIOTIDINE] | >320 | >320 | – |
| O=C(NCCCCc1c[nH]cn1)Nc1ccccc1 | 65 | 65 | – |
| CN/C(=N\C#N)NCCSCc1ccccn1 | >602 | >602 | – |
| C/N=C(\S)NCCCCCCc1c[nH]cn1 | 87 | 87 | – |
| S=C(NCCCCc1c[nH]cn1)NCCc1ccccc1 | 80 | 80 | – |

| Structure (SMILES) | ED50 (Rattus norvegicus [1]) [nmol] | ED50 (Rattus norvegicus [2]) [nmol] | other results |
| --- | --- | --- | --- |
| S=C(NC1CCCCC1)N1CCC(c2cnc[nH]2)CC1 [THIOPERAMIDE] | >342 | >342 | – |
| CNC(=S)N1CCC(c2c[nH]cn2)CC1 | 201 | 201 | – |
| C/N=C(\S)NCCCn1ccnc1 | >504 | >504 | – |
| CNC(=S)NCCCCc1cnc[nH]1 [BURIMAMIDE] | – | – | Activity (Rattus norvegicus [3]): Non-toxic; pKd (Histamine H2 receptor): 5.11; Activity (Rattus norvegicus [4]): Non-toxic; pKd (Histamine H3 receptor [7]): 7.00 |
| CN/C(=N\C#N)NCCCc1c[nH]cn1 [IMPROGAN] | 330 | 330 | Activity (Rattus norvegicus [1]): Dose-dependent effect; Activity (Rattus norvegicus [3]): Non-toxic; pKd (Histamine H3 receptor [8]): 5.30; Activity (Rattus norvegicus [2]): Dose-dependent effect; Activity (Rattus norvegicus [5]): tde; Activity (Rattus norvegicus [6]): tde; Activity (Rattus norvegicus [4]): Non-toxic |
| CNC(=S)NCCSCc1ccc(CN(C)C)o1 | 117 | 117 | Activity (Rattus norvegicus [3]): Non-toxic; Activity (Rattus norvegicus [5]): tde; Activity (Rattus norvegicus [6]): tde; Activity (Rattus norvegicus [4]): Non-toxic |
| S=C(NCCc1c[nH]cn1)Nc1ccccc1 | 89 | 89 | – |
| CN/C(=N\C#N)NCCSCc1ccc(CN(C)C)o1 | 67 | 67 | Activity (Rattus norvegicus [9]): inactive; Activity (Rattus norvegicus [1]): Dose-dependent effect; Activity (Rattus norvegicus [10]): tde; Activity (Rattus norvegicus [11]): Non-toxic; Activity (Rattus norvegicus [2]): Dose-dependent effect; Activity (Rattus norvegicus [12]): inactive; Activity (Rattus norvegicus [13]): tde; Activity (Rattus norvegicus [14]): Non-toxic |
| S=C(NCCCCc1c[nH]cn1)NCc1ccccc1 | 105 | 105 | – |
| CN/C(=C\[N+](=O)[O-])NCCCCc1c[nH]cn1 | 104 | 104 | – |
| c1ccc(NCCCOc2cccc(CN3CCCCC3)c2)cc1 [SKF95299] | >308 | >308 | – |
| S=C(NCCCCc1c[nH]cn1)NC1CCCCC1 | 285 | 285 | – |
| C/N=C(\S)NCCCc1c[nH]cn1 [NORBURIMAMIDE] | 217 | 217 | – |
| C/N=C(\S)NCCCCc1c[nH]cn1 [BURIMAMIDE] | 184 | 184 | Activity (Rattus norvegicus [1]): Dose-dependent effect; Activity (Rattus norvegicus [2]): Dose-dependent effect; Activity (Rattus norvegicus [5]): tde; Activity (Rattus norvegicus [6]): tde |
| CNC(=C[N+](=O)[O-])NCCSCc1ccc(CN(C)C)o1 [RANITIDINE] | 109 | 109 | – |
